US20230085307A1, “PYRIDAZINONE COMPOUND AND HERBICIDE” (NISSAN CHEMICAL CORPORATION, priority 2019, published 2023)

How the values were obtained:
false cleavers [1] = test: Test Example 5: herbicidal effect by foliage application, plastic box (Table 20, symbol Q); assay type: in vivo, false cleavers (Galium spurium); conditions: foliage application, 320 g/ha, three weeks after application
Outline: (§1)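 Plants were sown into sterilized diluvial soil under about 1.5 cm cover and kept in a greenhouse at 25° C. to 30° C. Fourteen days on, foliage received an even spray of the diluted emulsion. Herbicidal or crop effect was judged three weeks afterwards.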

velvetleaf [2] = test: Test Example 4: herbicidal effect by soil treatment (Table 19, symbol M); assay type: in vivo, velvetleaf (Abutilon theophrasti); conditions: amount of applied herbicide 320 g/ha
Outline: (§2)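 Pre-emergence style soil spray: seeds under ~1.5 cm sterilized diluvial soil received a uniform coat of emulsion diluted to the predetermined herbicide amount. Greenhouse 25–30° C; readout at week three on previously defined criteria.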

redroot pigweed [3] = test: Test Example 4: herbicidal effect by soil treatment (Table 19, symbol N); assay type: in vivo, redroot pigweed (Amaranthus retroflexus); conditions: amount of applied herbicide 320 g/ha
Outline: as §2

green foxtail [4] = test: Test Example 4: herbicidal effect by soil treatment (Table 19, symbol G); assay type: in vivo, green foxtail (Setaria viridis); conditions: amount of applied herbicide 320 g/ha
Outline: as §2

wild oat [5] = test: Test Example 5: herbicidal effect by foliage application, plastic box (Table 20, symbol I); assay type: in vivo, wild oat (Avena fatua); conditions: foliage application, 320 g/ha, three weeks after application
Outline: as §1

redroot pigweed [6] = test: Test Example 5: herbicidal effect by foliage application, plastic box (Table 20, symbol N); assay type: in vivo, redroot pigweed (Amaranthus retroflexus); conditions: foliage application, 320 g/ha, three weeks after application
Outline: as §1

windgrass [7] = test: Test Example 5: herbicidal effect by foliage application, plastic box (Table 20, symbol L); assay type: in vivo, windgrass (Apera spica-venti); conditions: foliage application, 320 g/ha, three weeks after application
Outline: as §1

Italian ryegrass [8] = test: Test Example 4: herbicidal effect by soil treatment (Table 19, symbol K); assay type: in vivo, Italian ryegrass (Lolium multiflorum); conditions: amount of applied herbicide 320 g/ha
Outline: as §2

blackgrass [9] = test: Test Example 5: herbicidal effect by foliage application, plastic box (Table 20, symbol J); assay type: in vivo, blackgrass (Alopecurus myosuroides); conditions: foliage application, 320 g/ha, three weeks after application
Outline: as §1

late watergrass = test: Test Example 1: herbicidal activity, application before weed generation under submerged conditions (Table 16, symbol A); assay type: in vivo, late watergrass (Echinochloa oryzicola); conditions: 320 g/ha applied herbicide
Outline: (§3)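 Alluvial soil was flooded to 4 cm depth, weed seeds were sown mixed and 2.5-leaf rice seedlings were transplanted. On sowing day, the compound's emulsion, diluted in water to a set dose, was applied to the water surface. Plants grew at 25–30 °C and were scored 0–5 after three weeks.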

Chinese sprangletop = test: Test Example 3: herbicidal effect by foliage application, Wagner pot (Table 18, symbol D); assay type: in vivo, chinese sprangletop (Leptochloa chinensis); conditions: 320 g/ha
Outline: (§4)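 Plants were sown in alluvial soil held under 0.1–0.5 cm standing water and grown 14 days in a greenhouse at 25–30 °C. An emulsifiable formulation, water-diluted to the set dose, was then sprayed onto the foliage, and effects were scored three weeks later using previously defined criteria.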

lambsquarters [10] = test: Test Example 4: herbicidal effect by soil treatment (Table 19, symbol O); assay type: in vivo, lambsquarters (Chenopodium album); conditions: amount of applied herbicide 320 g/ha
Outline: as §2

chickweed [11] = test: Test Example 5: herbicidal effect by foliage application, plastic box (Table 20, symbol P); assay type: in vivo, common chickweed (Stellaria media); conditions: foliage application, 320 g/ha, three weeks after application
Outline: as §1

lambsquarters [12] = test: Test Example 5: herbicidal effect by foliage application, plastic box (Table 20, symbol O); assay type: in vivo, lambsquarters (Chenopodium album); conditions: foliage application, 320 g/ha, three weeks after application
Outline: as §1

barnyard grass [13] = test: Test Example 4: herbicidal effect by soil treatment (Table 19, symbol H); assay type: in vivo, barnyard grass (Echinochloa crus-galli); conditions: amount of applied herbicide 320 g/ha
Outline: as §2

windgrass [14] = test: Test Example 4: herbicidal effect by soil treatment (Table 19, symbol L); assay type: in vivo, windgrass (Apera spica-venti); conditions: amount of applied herbicide 320 g/ha
Outline: as §2

rice flat sedge = test: Test Example 3: herbicidal effect by foliage application, Wagner pot (Table 18, symbol E); assay type: in vivo, rice flat sedge (Cyperus iria); conditions: 320 g/ha
Outline: as §4

blackgrass [15] = test: Test Example 4: herbicidal effect by soil treatment (Table 19, symbol J); assay type: in vivo, blackgrass (Alopecurus myosuroides); conditions: amount of applied herbicide 320 g/ha
Outline: as §2

green foxtail [16] = test: Test Example 5: herbicidal effect by foliage application, plastic box (Table 20, symbol G); assay type: in vivo, green foxtail (Setaria viridis); conditions: foliage application, 320 g/ha, three weeks after application
Outline: as §1

Japanese bulrush = test: Test Example 1: herbicidal activity, application before weed generation under submerged conditions (Table 16, symbol B); assay type: in vivo, Japanese bulrush (Schoenoplectus juncoides); conditions: 320 g/ha applied herbicide
Outline: as §3

chickweed [17] = test: Test Example 4: herbicidal effect by soil treatment (Table 19, symbol P); assay type: in vivo, common chickweed (Stellaria media); conditions: amount of applied herbicide 320 g/ha
Outline: as §2

Italian ryegrass [18] = test: Test Example 5: herbicidal effect by foliage application, plastic box (Table 20, symbol K); assay type: in vivo, Italian ryegrass (Lolium multiflorum); conditions: foliage application, 320 g/ha, three weeks after application
Outline: as §1

southern crabgrass [19] = test: Test Example 4: herbicidal effect by soil treatment (Table 19, symbol F); assay type: in vivo, southern crabgrass (Digitaria ciliaris); conditions: amount of applied herbicide 320 g/ha
Outline: as §2

velvetleaf [20] = test: Test Example 5: herbicidal effect by foliage application, plastic box (Table 20, symbol M); assay type: in vivo, velvetleaf (Abutilon theophrasti); conditions: foliage application, 320 g/ha, three weeks after application
Outline: as §1

false cleavers [21] = test: Test Example 4: herbicidal effect by soil treatment (Table 19, symbol Q); assay type: in vivo, false cleavers (Galium spurium); conditions: amount of applied herbicide 320 g/ha
Outline: as §2

persian speedwell [22] = test: Test Example 4: herbicidal effect by soil treatment (Table 19, symbol R); assay type: in vivo, Persian speedwell (Veronica persica); conditions: amount of applied herbicide 320 g/ha
Outline: as §2

wild oat [23] = test: Test Example 4: herbicidal effect by soil treatment (Table 19, symbol I); assay type: in vivo, wild oat (Avena fatua); conditions: amount of applied herbicide 320 g/ha
Outline: as §2

oval-leafed pondweed = test: Test Example 1: herbicidal activity, application before weed generation under submerged conditions (Table 16, symbol C); assay type: in vivo, oval-leafed pondweed (Monochoria vaginalis); conditions: 320 g/ha applied herbicide
Outline: as §3

barnyard grass [24] = test: Test Example 3: herbicidal effect by foliage application, Wagner pot (Table 18, symbol H); assay type: in vivo, barnyard grass (Echinochloa crus-galli); conditions: 320 g/ha
Outline: as §4

southern crabgrass [25] = test: Test Example 5: herbicidal effect by foliage application, plastic box (Table 20, symbol F); assay type: in vivo, southern crabgrass (Digitaria ciliaris); conditions: foliage application, 320 g/ha, three weeks after application
Outline: as §1

barnyard grass [26] = test: Test Example 5: herbicidal effect by foliage application, plastic box (Table 20, symbol H); assay type: in vivo, barnyard grass (Echinochloa crus-galli); conditions: foliage application, 320 g/ha, three weeks after application
Outline: as §1

persian speedwell [27] = test: Test Example 5: herbicidal effect by foliage application, plastic box (Table 20, symbol R); assay type: in vivo, Persian speedwell (Veronica persica); conditions: foliage application, 320 g/ha, three weeks after application
Outline: as §1

CCCCCOc1ccc(-c2sc3ccccc3c2-c2c(OC(=O)CCC)c(C)nn(C)c2=O)cc1 [1-027]
herbicidal effect grade, Q: false cleavers (false cleavers [1]): 3 (Herbicidal rate of 40% or more and less than 70%)
herbicidal effect rating, M: velvetleaf (velvetleaf [2]): 0 (Herbicidal rate of 5% or less (almost no effect))
herbicidal effect rating, N: redroot pigweed (redroot pigweed [3]): 0 (Herbicidal rate of 5% or less (almost no effect))
herbicidal effect rating, G: green foxtail (green foxtail [4]): 0 (Herbicidal rate of 5% or less (almost no effect))
herbicidal effect grade, I: wild oat (wild oat [5]): 0 (Herbicidal rate of 5% or less (almost no effect))
herbicidal effect grade, N: redroot pigweed (redroot pigweed [6]): 5 (Herbicidal rate of 90% or more (almost completely withered))
herbicidal effect grade, L: windgrass (windgrass [7]): 0 (Herbicidal rate of 5% or less (almost no effect))
herbicidal effect rating, K: Italian ryegrass (Italian ryegrass [8]): 0 (Herbicidal rate of 5% or less (almost no effect))
herbicidal effect grade, J: blackgrass (blackgrass [9]): 0 (Herbicidal rate of 5% or less (almost no effect))
Herbicidal effect on A: late watergrass (grade 0-5) (late watergrass): 0 (Herbicidal rate of 5% or less (almost no effect))
herbicidal effect on D (Chinese sprangletop), rating 0-5 (Chinese sprangletop): 2 (Herbicidal rate of 20% or more and less than 40%)
herbicidal effect rating, O: lambsquarters (lambsquarters [10]): 0 (Herbicidal rate of 5% or less (almost no effect))
herbicidal effect grade, P: chickweed (chickweed [11]): 5 (Herbicidal rate of 90% or more (almost completely withered))
herbicidal effect grade, O: lambsquarters (lambsquarters [12]): 3 (Herbicidal rate of 40% or more and less than 70%)
herbicidal effect rating, H: barnyard grass (barnyard grass [13]): 0 (Herbicidal rate of 5% or less (almost no effect))
herbicidal effect rating, L: windgrass (windgrass [14]): 0 (Herbicidal rate of 5% or less (almost no effect))
herbicidal effect on E (rice flat sedge), rating 0-5 (rice flat sedge): 1 (Herbicidal rate of 5% or more and less than 20%)
herbicidal effect rating, J: blackgrass (blackgrass [15]): 0 (Herbicidal rate of 5% or less (almost no effect))
herbicidal effect grade, G: green foxtail (green foxtail [16]): 0 (Herbicidal rate of 5% or less (almost no effect))
Herbicidal effect on B: Japanese bulrush (grade 0-5) (Japanese bulrush): 2 (Herbicidal rate of 20% or more and less than 40%)
herbicidal effect rating, P: chickweed (chickweed [17]): 2 (Herbicidal rate of 20% or more and less than 40%)
herbicidal effect grade, K: Italian ryegrass (Italian ryegrass [18]): 0 (Herbicidal rate of 5% or less (almost no effect))
herbicidal effect rating, F: southern crabgrass (southern crabgrass [19]): 0 (Herbicidal rate of 5% or less (almost no effect))
herbicidal effect grade, M: velvetleaf (velvetleaf [20]): 3 (Herbicidal rate of 40% or more and less than 70%)
herbicidal effect rating, Q: false cleavers (false cleavers [21]): 3 (Herbicidal rate of 40% or more and less than 70%)
herbicidal effect rating, R: persian speedwell (persian speedwell [22]): 2 (Herbicidal rate of 20% or more and less than 40%)
herbicidal effect rating, I: wild oat (wild oat [23]): 0 (Herbicidal rate of 5% or less (almost no effect))
Herbicidal effect on C: oval-leafed pondweed (grade 0-5) (oval-leafed pondweed): 0 (Herbicidal rate of 5% or less (almost no effect))
herbicidal effect on H (barnyard grass), rating 0-5 (barnyard grass [24]): 3 (Herbicidal rate of 40% or more and less than 70%)
herbicidal effect grade, F: southern crabgrass (southern crabgrass [25]): 0 (Herbicidal rate of 5% or less (almost no effect))
herbicidal effect grade, H: barnyard grass (barnyard grass [26]): 3 (Herbicidal rate of 40% or more and less than 70%)
herbicidal effect grade, R: persian speedwell (persian speedwell [27]): 4 (Herbicidal rate of 70% or more and less than 90%)
